Test results from the NIST ThermoML archive (doi:10.1021/acs.jced.8b00403).
± gives the expanded uncertainty stated by the source.

Assay: wn = mass fraction of the nth substance listed
Conditions: 101.33 kPa, Liquid; for viscosity: Concentric cylinders viscometry; for mass density: Vibrating tube method

OCCCO [propan-1,3-diol] + O
Conditions	mass density [kg/m3]	viscosity [mPa·s]
253.15 K, w1 = 0.4453	1053.7 ± 8	40.11 ± 12
253.15 K, w1 = 0.501	1058 ± 8	49.09 ± 15
253.15 K, w1 = 0.6123	1068.2 ± 8	85.87 ± 26
253.15 K, w1 = 0.7236	1074.9 ± 8	158.67 ± 48
253.15 K, w1 = 0.8349	1078.5 ± 8	267.81 ± 81
253.15 K, w1 = 0.9277	1079.6 ± 8	418.56 ± 130
253.15 K, w1 = 1	1078.2 ± 8	574.39 ± 170
258.15 K, w1 = 0.4453	1051.8 ± 8	29.02 ± 8.7
258.15 K, w1 = 0.501	1055.9 ± 8	35.24 ± 11
258.15 K, w1 = 0.6123	1065.8 ± 8	63.15 ± 19
258.15 K, w1 = 0.7236	1072.2 ± 8	110.64 ± 33
258.15 K, w1 = 0.8349	1075.5 ± 8	184.18 ± 55
258.15 K, w1 = 0.9277	1076.5 ± 8	293.3 ± 88
258.15 K, w1 = 1	1075.4 ± 8	409.88 ± 120
263.15 K, w1 = 0.334	1035.2 ± 8	12.02 ± 3.6
263.15 K, w1 = 0.4453	1047.7 ± 8	19.91 ± 6
263.15 K, w1 = 0.501	1052.5 ± 8	24.97 ± 7.5
263.15 K, w1 = 0.6123	1062.1 ± 8	44.2 ± 13
263.15 K, w1 = 0.7236	1068.4 ± 8	76.18 ± 23
263.15 K, w1 = 0.8349	1072.2 ± 8	132.29 ± 40
263.15 K, w1 = 0.9277	1073.2 ± 8	206.53 ± 62
263.15 K, w1 = 1	1072.3 ± 8	289.5 ± 87
268.15 K, w1 = 0.2226	1022.1 ± 8	5.908 ± 1.8
268.15 K, w1 = 0.334	1033.9 ± 8	9.252 ± 2.8
268.15 K, w1 = 0.4453	1045.7 ± 8	15.12 ± 4.5
268.15 K, w1 = 0.501	1050.3 ± 8	18.81 ± 5.6
268.15 K, w1 = 0.6123	1059.5 ± 8	32.82 ± 9.8
268.15 K, w1 = 0.7236	1065.6 ± 8	55.72 ± 17
268.15 K, w1 = 0.8349	1069.3 ± 8	95.75 ± 29
268.15 K, w1 = 0.9277	1070.1 ± 8	149.24 ± 45
268.15 K, w1 = 1	1069 ± 8	207.88 ± 62
273.15 K, w1 = 0.1113	1009.7 ± 8	2.894 ± 0.87
273.15 K, w1 = 0.2226	1021.3 ± 8	4.695 ± 1.4
273.15 K, w1 = 0.334	1032.5 ± 8	7.257 ± 2.2
273.15 K, w1 = 0.4453	1043.7 ± 8	11.74 ± 3.5
273.15 K, w1 = 0.501	1048.1 ± 8	14.52 ± 4.4
273.15 K, w1 = 0.6123	1056.9 ± 8	24.88 ± 7.5
273.15 K, w1 = 0.7236	1062.7 ± 8	41.58 ± 12
273.15 K, w1 = 0.8349	1066.3 ± 8	70.71 ± 21
273.15 K, w1 = 0.9277	1067.1 ± 8	109.69 ± 33
273.15 K, w1 = 1	1065.9 ± 8	152.75 ± 46
283.15 K, w1 = 0.1113	1008.8 ± 8	2.055 ± 0.62
283.15 K, w1 = 0.2226	1019.2 ± 8	3.165 ± 0.95
283.15 K, w1 = 0.334	1029.2 ± 8	4.748 ± 1.4
283.15 K, w1 = 0.4453	1039.3 ± 8	7.451 ± 2.2
283.15 K, w1 = 0.501	1043.3 ± 8	9.1 ± 2.7
283.15 K, w1 = 0.6123	1051.4 ± 8	15.1 ± 4.5
283.15 K, w1 = 0.7236	1056.8 ± 8	24.57 ± 7.4
283.15 K, w1 = 0.8349	1060.2 ± 8	40.76 ± 12
283.15 K, w1 = 0.9277	1061 ± 8	62.32 ± 19
283.15 K, w1 = 1	1059.8 ± 8	86.48 ± 26
293.15 K, w1 = 0.1113	1006.7 ± 8	1.529 ± 0.46
293.15 K, w1 = 0.2226	1016.3 ± 8	2.251 ± 0.68
293.15 K, w1 = 0.334	1025.4 ± 8	3.318 ± 1
293.15 K, w1 = 0.4453	1034.5 ± 8	5.035 ± 1.5
293.15 K, w1 = 0.501	1038.3 ± 8	6.074 ± 1.8
293.15 K, w1 = 0.6123	1045.7 ± 8	9.77 ± 2.9
293.15 K, w1 = 0.7236	1050.9 ± 8	15.48 ± 4.6
293.15 K, w1 = 0.8349	1054 ± 8	25 ± 7.5
293.15 K, w1 = 0.9277	1054.7 ± 8	37.6 ± 11
293.15 K, w1 = 1	–	52.01 ± 16
